Assays:
[1] = system: collagen-induced arthritis (CIA) mouse model; experiment: Therapeutic collagen-induced arthritis (CIA) study; format: in vivo, male DBA/1 mice; conditions: Days 36 to 41; Compound A 30 mg/kg ip daily; Enbrel 25 mg/kg twice a week
Text: The therapeutic effect of Compound A on CIA model in male DBA/1 mice following ip administration, treatment starting 7 days after the last immunization was explored. CIA developed rapidly in mice immunized with CII, with maximum AI of 10.2 observed at 39 days post immunization. The AI and incidence of vehicle- and Compound A treated groups increased in a time-dependent mode from Days 29 to 41. […] Compound A and Enbrel performed equally well; there were no significant difference between these treatments groups.
Separate prophylactic and therapeutic efficacy studies of COMPOUND A were performed. […] Body weights were measured and recorded prior to randomization and then once daily during the study. Food consumption was measured and recorded daily. […] Necropsy examinations were performed at study termination; plasma samples were collected, organ weights were recorded […]
CIA Assessment and Treatment. CIA was assessed in mice by two blinded observers to measure paw swelling with a capacity measurement method on Day 0, Day 20, Day 22, Day 25, Day 27, Day 29, Day 32, Day 34, Day 36, Day 39 and Day 41 after the first injection. […] However, the values measured were not included in the mean value calculations of the main groups. […]

PGE2 [2] = experiment: Plasma PGE2 EIA, therapeutic CIA study; format: in vivo, male DBA/1 mice; conditions: therapeutic CIA study; Compound A 30 mg/kg, Enbrel 25 mg/kg; vehicle 231.1±110; mean ± SD
Experimental: There were no significant differences between the treatment groups (p>0.05).
(§1) PGE2 EIA analysis of blood plasma from the prophylactic and therapeutic CIA studies was performed according to kit protocol. Plasma samples were diluted 1:1000-1:6000 in EIA buffer and allowed to hybridize over-night (18 hrs, 4° C.). The plate was read using a Multiscan plate reader (Ascent Labsystems) (OD550 nm). The corresponding Ascent software for Multiscan, Version 2.4.1 was used to obtain the data. PGE2 levels for all treatments are shown relative to the DMSO-treated vehicle arthritic mice (n=10-11 mice in each category±SD).
(§2) For the prophylactic and the therapeutic studies, CIA was induced in male DBA/1 mice (except naïve mice) by immunization with 0.1 mL emulsion containing an equal volume of bovine type II collagen solution (2 mg/mL) and Freuds Complete Adjuvant at the tail base. The first injection was given on Day 0 and the second injection as booster was given on Day 21 (41-43). COMPOUND A, vehicle (DMSO) and MTX (0.3 mg/kg) were administered daily, Enbrel (25 mg/kg) was administrated twice a week. For the prophylactic study, treatment started one hour before the second collagen injection and continued for 21 days except for the histology groups that were sacrificed at Day 13 ([…]). For the therapeutic study, treatment started at Day 28 and continued for 14 days.

[3] = system: rat streptozocin-induced model of human chronic renal disease; experiment: Rat streptozocin-induced model of human chronic renal disease, urine protein; format: in vivo, Sprague Dawley rats; conditions: AVX235 10 mg/kg ip; losartan 30 mg/kg oral gavage daily; 2 weeks
Experimental: The therapeutic effect of AVX235 was tested in the rat streptozocin-induced model of human chronic renal disease and compared against losartan (positive control).
Sprague Dawley rats (Harlan laboratories, USA) of an average weight of 130-150 grams were divided in groups of 8 animals per group and were treated according to table 7:
AVX235 was injected intraperitoneally, once daily for the first 4 days and then every two days. Losartan was administered daily, by oral gavage. At 2 weeks post experiment initiation, urine was collected over a period of 24 h and total protein in mg was measured.

[4] = system: collagen-induced arthritis (CIA) mouse model; experiment: Prophylactic collagen-induced arthritis (CIA) study; format: in vivo, male DBA/1 mice
Experimental: The prophylactic effect of Compound A on CIA model in male DBA/1 mice^57 following intraperitoneal (ip) administration, treatment starting 1 hour prior to the last immunization was studied. A study comparing naïve mice (healthy, non-CIA, non-treated), vehicle-treated mice (CIA with DMSO, ip) and CIA mice treated daily with Compound A (7.5 mg/kg, ip) or MTX (0.3 mg/kg, ip) was performed. CIA developed rapidly in mice immunized with CII. In the prophylactic study, a 100% incidence of CIA was observed by day 29 in CII-immunized mice, with maximum AI of 8.55 observed at 41 days post immunization. The AI and incidence of all groups increased in a time-dependent mode from day 25 to day 41.
Separate prophylactic and therapeutic efficacy studies of COMPOUND A were performed. Methotrexate (MTX) (Jiangsu Hengrui Medicine Co, #11041411), Enbrel (Boehringer Ingelheim Pharma KG, # F39487), and vehicle (DMSO 100%, Sigma Aldrich # D2650) were administered to all groups via intraperitoneal injection once daily at a dose volume of 2 mL/kg. Observations for morbidity, mortality, injury, and the availability of food and water were conducted twice daily for all animals. Clinical observations were conducted daily during the study. Body weights were measured and recorded prior to randomization and then once daily during the study. Food consumption was measured and recorded daily. Biopsies for mid-term histology analysis were obtained on Day 13 in the prophylactic study. Necropsy examinations were performed at study termination; plasma samples were collected, organ weights were recorded
as §2
CIA Assessment and Treatment. CIA was assessed in mice by two blinded observers to measure paw swelling with a capacity measurement method on Day 0, Day 20, Day 22, Day 25, Day 27, Day 29, Day 32, Day 34, Day 36, Day 39 and Day 41 after the first injection. The occurrence of arthritis was observed by scoring all paws for severity of erythema and swelling, using a clinical score ranging from 0 (no swelling) to 4 (severe swelling and erythema). The physical condition of the animals was observed daily. Scores and overall evaluation of the histology group arms were performed in the same way as the main groups. However, the values measured were not included in the mean value calculations of the main groups. The YLS-7B Foot Volume Measuring Instrument (Huaibei China Bio Equipment) was used to measure the foot volume of mice. The occurrence of arthritis was observed by scoring all paws for severity of erythema and swelling, using a clinical score ranging from 0 (no swelling) to 4 (severe swelling and erythema), i.e. yielding maximum arthritic index (AI) score 16 (46).
Measurement of the histopathology and clinical observations. At the end of the studies, one hind foot of each mouse was collected for histopathology. The foot including the ankle was fixed in 10% neutral formalin. The ankle joints were decalcified, dehydrated, embedded in paraffin, sectioned and stained with routine hematoxylin-eosin. The sections were studied using light microscopy (10×10 and 20×10 magnifications). Arthritis damage (histological damage score) was evaluated and scored by an investigator blinded for the treatment regimen. […]

PGE2 [5] = experiment: Plasma PGE2 EIA, prophylactic CIA study; format: in vivo, male DBA/1 mice; conditions: prophylactic CIA study; Compound A 7.5 mg/kg, MTX 0.3 mg/kg; vehicle 223.4±107; mean ± SD
Experimental: PGE2 is recognized as an important contributor to the joint inflammation in rheumatoid arthritis,^60 and we investigated if plasma PGE2 levels were changed in response to treatment. […] There were no significant differences between the treatment groups (p>0.05).
as §1, §2

MAS98.12 xenograft = conditions: FIG. 1; data from an earlier study in the same animal model [13]; cited from earlier work
[6] = hind paw, Compound A 7.5 mg/kg, MTX 0.3 mg/kg

## Enbrel
[1]
  arthritic index (AI) in comparison to the CIA control group (in words): significantly decreased
PGE2 [2]
  plasma PGE2 level: 187.5 ± 74 ng/mL

## CCCCc1nc(Cl)c(CO)n1Cc1ccc(-c2ccccc2-c2nn[nH]n2)cc1 [losartan]
[3]
  therapeutic effect on STZ-induced urine protein (in words): protected rats from the STZ effect

## CN(Cc1cnc2nc(N)nc(N)c2n1)c1ccc(C(=O)N[C@@H](CCC(=O)O)C(=O)O)cc1 [MTX, Methotrexate, reference compound]
[4]; Days 32 to 41, Compound A 7.5 mg/kg ip daily, MTX 0.3 mg/kg ip daily
  arthritic index (AI) in comparison to the CIA control group (in words): significantly reduced
[4]; [6]
  articular cavity and peripheral tissue inflammatory cell infiltration, histopathology vs vehicle (in words): did not reduce
  capillary and synovial hyperplasia, histopathology vs vehicle (in words): did not reduce
  cartilage damage, histopathology vs vehicle (in words): did not reduce
PGE2 [5]
  plasma PGE2 level: 107.3 ± 62 ng/mL

## Cn1c(=O)n(-c2ccc(C(C)(C)C#N)cc2)c2c3cc(-c4cnc5ccccc5c4)ccc3ncc21 [BEZ235]
MAS98.12 xenograft
  tumor volume (in words): tumor volumes are reduced

From patent US11034666B2, “Anti-inflammatory and antitumor 2-oxothiazoles and 2-oxothiophenes compounds” (Avexxin AS, priority 2013, dated 2021)
